{"source": "patent US7250430B2", "about": "“Thiophene-and thiazolesulfonamides as antineoplastic agents” (Eli Lilly and Company, priority 2006, dated 2007)", "key": {"[1]": {"system": "Human Colon HCT116 tumor cells", "assay": "HCT116 Colon Carcinoma Cell Growth Inhibition (WST-1)", "format": "cell-based", "settings": "HCT-116, 72 hr exposure", "protocol": "Human HCT 116 colon carcinoma cells were grown monolayer culture in RPMI 1640 medium supplemented with 10% fetal bovine serum and 1% penicillin-streptomycin (GibcoBRL, Grand Island, N.Y.). HCT116 cells in exponential growth phase were exposed to various concentrations of the test compounds at 37° C. for 72 hr in 5% carbon dioxide/air. After exposure to the agent, the cells were washed with 0.9% phosphate buffered saline. Growth inhibition was determined using WST-1 cell proliferation reagent as described above. The results are expressed as the growth fraction of treated cells compared with control cultures. Representative compounds of the present invention were tested for efficacy against the human colon HCT116 tumor cells."}, "[2]": {"system": "Human Colon Carcinoma HT-29", "assay": "Human Tumor Xenograft Assay, tumor growth delay", "format": "in vivo, mouse", "settings": "5 consecutive days, 2 days rest", "description": "Inhibition of tumors transplanted into mice is an accepted procedure for studying the efficacy of antitumor agents (Corbett, et al., In vivo Methods for Screening and Preclinical Testing; Use of rodent solid tumors for drug discovery., In: Anticancer Drug Development Guide: Preclinical Screening, Clinical Trials, and Approval, B. Teicher (ed), Humana Press Inc., Totowa, N.J., Chapter 5, pages 75-99 (1997); (Corbett, et al., Int. J. Pharmacog., 33, Supplement, 102-122 (1995)). Murine tumors or human xenografts were implanted essentially as described by Corbett in In vivo Methods for Screening and Preclinical Testing; Use of rodent solid tumors for drug discovery. Briefly, the murine tumor or human xenograft was implanted subcutaneously using either 12-gauge trocar implants or counted number of cells. The location for the trocar insertion is midway between the axillary and inguinal region along the side of the mouse. The trocar is slipped approximately ¾ of an inch subcutaneously up toward the axilla before discharging the tumor fragment, and pinching the skin as the trocar is removed. Alternatively, human tumor cells prepared from cell culture (1×10^7 cells) mixed with an equal volume of Matrigel (Becton-Dickinson) were implanted subcutaneously in a hind-leg of a male or female nude mouse (Charles River). A test compound in vehicle or vehicle alone was administered by intravenous bolus injection (iv), intraperitoneal injection (ip), or oral gavage (po). Each treatment group, as well as a group of untreated control animals, consisted of eight to ten animals per group in each experiment. Subcutaneous tumor response was monitored by tumor volume measurement performed twice each week over the course of the experiment (60-120 days). Body weights were taken as a general measure of toxicity. The subcutaneous tumor data were analyzed by determining the median […] for each treatment group over the course of the experiment and calculating the tumor growth delay as the difference in days for the treatment versus the control tumors to reach a volume of either 500 or 1000 mm^3.\nThe compound of Example 64 was tested in two separate laboratories against a variety of murine and human tumors substantially as described supra. The parameters measured in each experiment are summarized in the following paragraphs. Tumor Weight(mg)=(a×b^2)/2 where a=tumor length (mm) and b=tumor width (mm).\nTumor Growth Delay=T−C where T is the median time (days) required for the treatment group tumors to reach a predetermined size, and C is the median time (days) for the control group tumors to reach the same size.\nAfter palpable tumors were observed drug was administered IV for 5 consecutive days, animals rested for 2 days and compound dosed IV again for 5 consecutive days."}}}
{"smiles": "O=C(NS(=O)(=O)c1ccc(Br)s1)c1ccc(Br)cc1Br", "note": "[Example 32, N-[2,4-dibromobenzoyl]-5-bromothiophene-2-sulfonamide]", "values": [{"measurement": "IC50", "setting": "[1]", "result": 3.9, "unit": "µM"}]}
{"smiles": "O=C([N-]S(=O)(=O)c1ccc(Br)s1)c1ccc(Cl)cc1Cl.[Na+]", "note": "[Example 64, N-[2,4-dichlorobenzoyl]-5-bromothiophene-2-sulfonamide sodium salt]", "values": [{"measurement": "Tumor Growth Delay", "setting": "[2]; Experiment A, 30 mg/kg IV", "result": "0 ± 2", "unit": "days"}, {"measurement": "Tumor Growth Delay", "setting": "[2]; Experiment A, 60 mg/kg IV", "result": "2 ± 2", "unit": "days"}, {"measurement": "Tumor Growth Delay", "setting": "[2]; Experiment A, 80 mg/kg IV", "result": "2 ± 2", "unit": "days"}, {"measurement": "Tumor Growth Delay", "setting": "[2]; Experiment B, 30 mg/kg IV", "result": "9 ± 4", "unit": "days"}, {"measurement": "Tumor Growth Delay", "setting": "[2]; Experiment B, 60 mg/kg IV", "result": "3 ± 4", "unit": "days"}, {"measurement": "Tumor Growth Delay", "setting": "[2]; Experiment B, 80 mg/kg IV", "result": "8 ± 3.6", "unit": "days"}]}
{"smiles": "Cc1ccc(C(=O)NS(=O)(=O)c2ccc(Cl)s2)c(Br)c1", "note": "[Example 31, N-[2-bromo-4-methylbenzoyl]-5-chlorothiophene-2-sulfonamide]", "values": [{"measurement": "IC50", "setting": "[1]", "result": 9.1, "unit": "µM"}]}
{"smiles": "O=C(NS(=O)(=O)c1ccc(Br)s1)c1ccc(Br)cc1Cl", "note": "[Example 54, N-[4-bromo-2-chlorobenzoyl]-5-bromothiophene-2-sulfonamide]", "values": [{"measurement": "IC50", "setting": "[1]", "result": 17, "unit": "µM"}]}
{"smiles": "O=C(NS(=O)(=O)c1ccc(Cl)s1)c1ccc(Cl)cc1Cl", "note": "[Example 61, N-[2,4-dichlorobenzoyl]-5-chlorothiophene-2-sulfonamide]", "values": [{"measurement": "IC50", "setting": "[1]", "result": 1, "unit": "µM"}]}
{"smiles": "Cc1ccc(C(=O)NS(=O)(=O)c2ccc(Br)s2)c(Cl)c1", "note": "[Example 7, N-[2-chloro-4-methylbenzoyl]-5-bromothiophene-2-sulfonamide]", "values": [{"measurement": "IC50", "setting": "[1]", "result": 5.2, "unit": "µM"}]}
{"smiles": "O=C(NS(=O)(=O)c1ccc(Cl)s1)c1ccc(C(F)(F)F)cc1C(F)(F)F", "note": "[Example 4, N-[2,4-bis(trifluoromethyl)-benzoyl]-5-chlorothiophene-2-sulfonamide]", "values": [{"measurement": "IC50", "setting": "[1]", "result": 7.7, "unit": "µM"}]}
{"smiles": "O=C(NS(=O)(=O)c1cc(Br)c(Cl)s1)c1ccc(Br)cc1Cl", "note": "[Example 3, N-[4-bromo-2-chlorobenzoyl]-4-bromo-5-chlorothiophene-2-sulfonamide]", "values": [{"measurement": "IC50", "setting": "[1]", "result": 14.7, "unit": "µM"}]}
{"smiles": "Cc1cc(Cl)ccc1C(=O)NS(=O)(=O)c1ccc(Cl)s1", "note": "[Example 30, N-[4-chloro-2-methylbenzoyl]-5-chlorothiophene-2-sulfonamide]", "values": [{"measurement": "IC50", "setting": "[1]", "result": 15.8, "unit": "µM"}]}
{"smiles": "COc1ccc(S(=O)(=O)NC(=O)c2ccc(Cl)cc2Cl)s1", "note": "[Example 19, N-[2,4-dichlorobenzoyl]-5-methoxythiophene-2-sulfonamide]", "values": [{"measurement": "IC50", "setting": "[1]", "result": 5.8, "unit": "µM"}]}
{"smiles": "Cc1cc(Cl)ccc1C(=O)NS(=O)(=O)c1ccc(Br)s1", "note": "[Example 2, N-[4-chloro-2-methylbenzoyl]-5-bromothiophene-2-sulfonamide]", "values": [{"measurement": "IC50", "setting": "[1]", "result": 6, "unit": "µM"}]}
{"smiles": "Cc1cc(Cl)ccc1C(=O)NS(=O)(=O)c1ccc(C#N)s1", "note": "[Example 28, N-[4-chloro-2-methylbenzoyl]-5-cyanothiophene-2-sulfonamide]", "values": [{"measurement": "IC50", "setting": "[1]", "result": 8, "unit": "µM"}]}
{"smiles": "O=C(NS(=O)(=O)c1ccc(Br)s1)c1ccc(Cl)cc1F", "note": "[Example 9, N-[4-chloro-2-fluorobenzoyl]-5-bromothiophene-2-sulfonamide]", "values": [{"measurement": "IC50", "setting": "[1]", "result": 21.7, "unit": "µM"}]}
{"smiles": "Cc1ccc(S(=O)(=O)NC(=O)c2ccc(Cl)cc2Cl)s1", "note": "[Example 16, N-[2,4-dichlorobenzoyl]-5-(methyl)thiophene-2-sulfonamide]", "values": [{"measurement": "IC50", "setting": "[1]", "result": 3.7, "unit": "µM"}]}
{"smiles": "CCCc1ccc(S(=O)(=O)NC(=O)c2ccc(Cl)cc2Cl)s1", "note": "[Example 18, N-[2,4-dichlorobenzoyl]-5-(propyl)thiophene-2-sulfonamide]", "values": [{"measurement": "IC50", "setting": "[1]", "result": 13.2, "unit": "µM"}]}
{"smiles": "CCc1ccc(S(=O)(=O)NC(=O)c2ccc(Cl)cc2Cl)s1", "note": "[Example 17, N-[2,4-dichlorobenzoyl]-5-(ethyl)thiophene-2-sulfonamide]", "values": [{"measurement": "IC50", "setting": "[1]", "result": 5, "unit": "µM"}]}
{"smiles": "Cc1ccc(C(=O)NS(=O)(=O)c2ccc(Cl)s2)c(C)c1", "note": "[Example 6, N-[2,4-dimethylbenzoyl]-5-chlorothiophene-2-sulfonamide]", "values": [{"measurement": "IC50", "setting": "[1]", "result": 20.6, "unit": "µM"}]}
{"smiles": "O=C(NS(=O)(=O)c1ccc(-c2ccccn2)s1)c1ccc(Cl)cc1Cl", "note": "[Example 56, N-[2,4-dichlorobenzoyl]-5-(2-pyridyl)-thiophene-2-sulfonamide]", "values": [{"measurement": "IC50", "setting": "[1]", "result": 5.4, "unit": "µM"}]}
{"smiles": "O=C(NS(=O)(=O)c1ccc(Br)s1)c1ccc(Cl)cc1Cl", "note": "[Example 63, N-[2,4-dichlorobenzoyl]-5-bromothiophene-2-sulfonamide]", "values": [{"measurement": "IC50", "setting": "[1]", "result": 1.3, "unit": "µM"}]}
{"smiles": "O=C(NS(=O)(=O)c1cccs1)c1ccc(Cl)cc1Cl", "note": "[Example 55, N-[2,4-dichlorobenzoyl]-thiophene-2-sulfonamide]", "values": [{"measurement": "IC50", "setting": "[1]", "result": 4.5, "unit": "µM"}]}
{"smiles": "O=C(NS(=O)(=O)c1ccc(Cl)s1)c1ccc(Br)cc1Cl", "note": "[Example 1, N-[4-bromo-2-chlorobenzoyl]-5-chlorothiophene-2-sulfonamide]", "values": [{"measurement": "IC50", "setting": "[1]", "result": 5.6, "unit": "µM"}]}
{"smiles": "Cc1cc(Br)ccc1C(=O)NS(=O)(=O)c1ccc(Br)s1", "note": "[Example 57, N-[4-bromo-2-methylbenzoyl]-5-bromothiophene-2-sulfonamide]", "values": [{"measurement": "IC50", "setting": "[1]", "result": 3.4, "unit": "µM"}]}
{"smiles": "O=C(NS(=O)(=O)c1ccc(Br)s1)c1ccc([N+](=O)[O-])cc1Cl", "note": "[Example 58, N-[2-chloro-4-nitrobenzoyl]-5-bromothiophene-2-sulfonamide]", "values": [{"measurement": "IC50", "setting": "[1]", "result": 5.2, "unit": "µM"}]}
{"smiles": "COCc1ccc(S(=O)(=O)NC(=O)c2ccc(Cl)cc2Cl)s1", "note": "[Example 20, N-[2,4-dichlorobenzoyl]-5-methoxymethyl-thiophene-2-sulfonamide]", "values": [{"measurement": "IC50", "setting": "[1]", "result": 5.7, "unit": "µM"}]}
{"smiles": "Cc1cc(Br)ccc1C(=O)NS(=O)(=O)c1ccc(C#N)s1", "note": "[Example 29, N-[4-bromo-2-methylbenzoyl]-5-cyanothiophene-2-sulfonamide]", "values": [{"measurement": "IC50", "setting": "[1]", "result": 17.3, "unit": "µM"}]}
